For the data set the following is noted: pH 7.4.
For the compound `CC(C)CC(O)C(CC1CCCCC1)NC(=O)C(Cn1ccnc1)NC(=O)C(CC(=O)N1CCOCC1)Cc1ccccc1` (stereo not given), the logD was determined as 3.79.
To `CC(C)CC(O)C(CC1CCCCC1)NC(=O)C(CN=[N+]=[N-])NC(=O)C(CC(=O)N1CCCOCC1)Cc1ccccc1` (stereo not given) belongs 4.1; to `CC(C)CC(O)C(CC1CCCCC1)NC(=O)C(Cc1cscn1)NC(=O)C(CC(=O)N1CCOCC1)Cc1ccccc1` (stereo not given), 4.27.
`CC(C)CC(O)C(O)C(CC1CCCCC1)NC(=O)C(NC(=O)C(CC(=O)N1CCN(C)CC1)Cc1ccccc1)c1c[nH]cn1` (stereo not given): the logD was 1.66.
Compound `CC(C)CC(O)C(CC1CCCCC1)NC(=O)C(Cc1cn(C)cn1)NC(=O)C(CC(=O)N1CCOCC1)Cc1ccccc1` (stereo not given) registered a logD of 3.71.
In the case of `COc1ccc(CC(CC(=O)N2CCN(C)CC2)C(=O)NC(Cc2cscn2)C(=O)NC(CC2CCCCC2)C(O)C(O)CC(C)C)cc1` (stereo not given) it was 3.38; in that of `CC(C)CC(O)C(O)C(CC1CCCCC1)NC(=O)C(Cc1cscn1)NC(=O)C(CC(=O)CN1CCCOCC1)Cc1ccccc1` (stereo not given), 3.91.
In the case of `CC(C)CC(O)C(CC1CCCCC1)NC(=O)C(Cc1cc[nH]n1)NC(=O)C(CC(=O)N1CCCOCC1)Cc1ccccc1` (stereo not given) it was 4.01; in that of `CC(C)CC(O)C(O)C(CC1CCCCC1)NC(=O)C(NC(=O)C(CC(=O)N1CCN(C)CC1)Cc1ccccc1)c1cc[nH]n1` (stereo not given), 4.02.
In the case of `CC(C)CC(O)C(CC1CCCCC1)NC(=O)C(Cc1c[nH]cn1)NC(=O)C(CC(=O)N1CCOCC1)Cc1ccccc1` (stereo not given) it was 3.51.

For orientation: logD means lipophilicity at a set pH, counting ionised and neutral species. A high value points to a more lipophilic compound.

(Values after the SangsterLogP compilation.)
